Here are results for 27 molecules from ChEMBL document CHEMBL1138997, “Synthesis and antitumor activity of simplified ecteinascidin-saframycin analogs” (Bioorg Med Chem Lett, 2006).

Common to all, as to assay type: functional, cell-based
Holding throughout (settings): Homo sapiens

Test [1] concerns Bel-7402. Nature of the test: Cytotoxicity against Bel7402 liver carcinoma cell.
Test [2] relates to BGC-823. Nature of the test: Cytotoxicity against BGC823 gastric carcinoma cell.
Test [3] has as its system HCT-8. Nature of the test: Cytotoxicity against HCT8 colon carcinoma cell.

A word on the IC50: it is the concentration needed to halve the response being measured. A lower IC50 goes with greater potency.

As to `COc1ccc(CC(=O)OC[C@H]2c3cc(OC)c(OC)cc3C[C@H]3[C@H]4c5cc(OC)c(OC)cc5C[C@@H]([C@H](C#N)N23)N4C)cc1`, the IC50 in test [1] came to 3010 nM; in test [2], 1140 nM; in test [3], 3560 nM.

In the case of `COc1cc2c(cc1OC)[C@@H]1[C@@H]3Cc4cc(OC)c(OC)cc4[C@H](CNC(=O)c4ccco4)N3[C@@H](C#N)[C@H](C2)N1C`, the IC50 in test [1] was 1200 nM; in test [2], 1320 nM; in test [3], 1380 nM.

As to `C=CC(=O)OC[C@H]1c2cc(OC)c(OC)cc2C[C@H]2[C@H]3c4cc(OC)c(OC)cc4C[C@@H]([C@H](C#N)N12)N3C`, the concentration for half-maximal inhibition (IC50) in test [1] came out at 760 nM; in test [2] it was 460 nM; in test [3], 2140 nM.

As to `CCC(=O)OC[C@H]1c2cc(OC)c(OC)cc2C[C@H]2[C@H]3c4cc(OC)c(OC)cc4C[C@@H]([C@H](C#N)N12)N3C`, the figures for the half-inhibitory concentration (IC50) in test [1], in test [2] and in test [3] were 110 nM, 150 nM and 300 nM, respectively.

As to `COc1cc2c(cc1OC)[C@@H]1[C@@H]3Cc4cc(OC)c(OC)cc4[C@H](COC(=O)CCCc4ccccc4)N3[C@@H](C#N)[C@H](C2)N1C`, the concentration for half-maximal inhibition (IC50) in test [1] worked out at 120 nM; in test [2], 750 nM; in test [3] it was 830 nM.

Regarding `COc1cc2c(cc1OC)[C@@H]1[C@@H]3Cc4cc(OC)c(OC)cc4[C@H](COC(=O)c4cccs4)N3[C@@H](C#N)[C@H](C2)N1C`, the IC50 in test [1] stood at 820 nM; in test [2], 210 nM; in test [3], 1600 nM.

For the molecule `COc1cc2c(cc1OC)[C@@H]1[C@@H]3Cc4cc(OC)c(OC)cc4[C@H](CNC(=O)c4ccccc4)N3[C@@H](C#N)[C@H](C2)N1C`, the IC50 in test [1] was found to be 1350 nM; in test [2], 1400 nM; in test [3], 1350 nM.

Consider `COc1cc2c(cc1OC)[C@@H]1[C@@H]3Cc4cc(OC)c(OC)cc4[C@H](CNC(=O)/C=C/c4ccccc4)N3[C@@H](C#N)[C@H](C2)N1C`, for which the IC50 came out at 1450 nM in test [1], 1310 nM in test [2] and 1780 nM in test [3].

In the case of `COc1cc2c(cc1OC)[C@@H]1[C@@H]3Cc4cc(OC)c(OC)cc4[C@H](CNC(=O)c4ccccc4Cl)N3[C@@H](C#N)[C@H](C2)N1C`, the IC50 in test [1] is 1870 nM; in test [2] it was 1910 nM; in test [3] it was 1850 nM.

In the case of `COc1cc2c(cc1OC)[C@@H]1[C@@H]3Cc4cc(OC)c(OC)cc4[C@H](COC(=O)Cc4ccc(F)cc4)N3[C@@H](C#N)[C@H](C2)N1C`, the half-maximal inhibitory concentration (IC50) in test [1] is 200 nM; in test [2] it was 200 nM; in test [3], 240 nM.

For `COc1cc2c(cc1OC)[C@@H]1[C@@H]3Cc4cc(OC)c(OC)cc4[C@H](COC(C)=O)N3[C@@H](C#N)[C@H](C2)N1C`, the 50% inhibitory concentration (IC50) in test [1] stood at 340 nM; in test [2] it was 150 nM; in test [3], 310 nM.

For `COc1cc2c(cc1OC)[C@@H]1[C@@H]3Cc4cc(OC)c(OC)cc4[C@H](COC(=O)[C@H]4Cc5ccccc5CN4Cc4ccccc4)N3[C@@H](C#N)[C@H](C2)N1C`, the figures for the half-inhibitory concentration (IC50) in test [1], in test [2] and in test [3] were 1690 nM, 360 nM and 1420 nM, respectively.

`COc1cc2c(cc1OC)[C@@H]1[C@@H]3Cc4cc(OC)c(OC)cc4[C@H](COC(=O)c4cccnc4)N3[C@@H](C#N)[C@H](C2)N1C`: the half-maximal inhibitory concentration (IC50) in test [1] stood at 2100 nM; in test [2] it was 1020 nM; in test [3] it was 3280 nM.

`COc1cc2c(cc1OC)[C@@H]1[C@@H]3Cc4cc(OC)c(OC)cc4[C@H](CNC(=O)c4cccs4)N3[C@@H](C#N)[C@H](C2)N1C`: the IC50 in test [1] is 790 nM; in test [2] it was 1160 nM; in test [3] it was 1280 nM.

As to `COc1cc2c(cc1OC)[C@@H]1[C@@H]3Cc4cc(OC)c(OC)cc4[C@H](COC(=O)c4cc5ccccc5[nH]4)N3[C@@H](C#N)[C@H](C2)N1C`, the IC50 is 850 nM in test [1], 10 nM in test [2] and 620 nM in test [3].

Regarding `COc1cc2c(cc1OC)[C@@H]1[C@@H]3Cc4cc(OC)c(OC)cc4[C@H](CNC(=O)c4cccc5ccccc45)N3[C@@H](C#N)[C@H](C2)N1C`, the figures for the IC50 in test [1], in test [2] and in test [3] were 2080 nM, 1860 nM and 1720 nM, respectively.

As to `COc1cc2c(cc1OC)[C@@H]1[C@@H]3Cc4cc(OC)c(OC)cc4[C@H](COC(=O)c4cccc5ccccc45)N3[C@@H](C#N)[C@H](C2)N1C`, the results for the half-maximal inhibitory concentration (IC50) in test [1], in test [2] and in test [3] were 710 nM, 6 nM and 340 nM, respectively.

For `C=CC(=O)NC[C@H]1c2cc(OC)c(OC)cc2C[C@H]2[C@H]3c4cc(OC)c(OC)cc4C[C@@H]([C@H](C#N)N12)N3C`, the IC50 in test [1] is 1870 nM; in test [2], 2000 nM; in test [3], 2710 nM.

With `COc1cc2c(cc1OC)[C@@H]1[C@@H]3Cc4cc(OC)c(OC)cc4[C@H](COC(=O)c4cccc(Cl)c4)N3[C@@H](C#N)[C@H](C2)N1C`, the results for the IC50 in test [1], in test [2] and in test [3] were 1120 nM, 29 nM and 100 nM, respectively.

Consider `COc1cc2c(cc1OC)[C@@H]1[C@@H]3Cc4cc(OC)c(OC)cc4[C@H](CNC(=O)c4ccc([N+](=O)[O-])cc4)N3[C@@H](C#N)[C@H](C2)N1C`, for which the figures for the IC50 in test [1], in test [2] and in test [3] were 1220 nM, 1370 nM and 1230 nM, respectively.

Turning to `COc1cc2c(cc1OC)[C@@H]1[C@@H]3Cc4cc(OC)c(OC)cc4[C@H](COC(=O)c4ccccn4)N3[C@@H](C#N)[C@H](C2)N1C`, the IC50 came out at 2020 nM in test [1], 1440 nM in test [2] and 5150 nM in test [3].

As for `COc1cc2c(cc1OC)[C@@H]1[C@@H]3Cc4cc(OC)c(OC)cc4[C@H](COC(=O)/C=C/c4ccccc4)N3[C@@H](C#N)[C@H](C2)N1C`, the 50% inhibitory concentration (IC50) in test [1] came to 680 nM; in test [2], 58 nM; in test [3], 37 nM.

Turning to `COc1cc2c(cc1OC)[C@@H]1[C@@H]3Cc4cc(OC)c(OC)cc4[C@H](COC(=O)c4cnccn4)N3[C@@H](C#N)[C@H](C2)N1C`, the IC50 turned out to be 3500 nM in test [1], 1690 nM in test [2] and 3480 nM in test [3].

Take `COc1cc2c(cc1OC)[C@@H]1[C@@H]3Cc4cc(OC)c(OC)cc4[C@H](COC(=O)c4ccco4)N3[C@@H](C#N)[C@H](C2)N1C`: the IC50 is 750 nM in test [1], 580 nM in test [2] and 690 nM in test [3].

For the molecule `COc1cc2c(cc1OC)[C@@H]1[C@@H]3Cc4cc(OC)c(OC)cc4[C@H](CNC(=O)c4cccc(Cl)c4)N3[C@@H](C#N)[C@H](C2)N1C`, the IC50 in test [1] is 950 nM; in test [2] it was 1010 nM; in test [3], 1540 nM.

In the case of `COc1cc2c(cc1OC)[C@@H]1[C@@H]3Cc4cc(OC)c(OC)cc4[C@H](COC(=O)c4ccccc4)N3[C@@H](C#N)[C@H](C2)N1C`, the concentration for half-maximal inhibition (IC50) in test [1] turned out to be 590 nM; in test [2], 15 nM; in test [3] it was 440 nM.

As for `COc1cc2c(cc1OC)[C@@H]1[C@@H]3Cc4cc(OC)c(OC)cc4[C@H](COC(=O)c4cncc(Br)c4)N3[C@@H](C#N)[C@H](C2)N1C`, the IC50 in test [1] was 1490 nM; in test [2], 450 nM; in test [3], 1170 nM.
